The values below come from US5491217A, “LHRH antagonists having modified aminoacyl residues at positions 5 and 6” (TAP Holding Inc., priority 1994, dated 1996).

The term pA2 denotes the negative logarithm of the molar antagonist concentration that doubles the agonist concentration needed for the same response. What is called Kb is the equilibrium dissociation constant of an antagonist, usually derived from a functional assay.

Where a SMILES comes first, the peptide text is derived from it. [ ]: non-standard residue; d: D form. NMePhe(4-NO2) = CN[C@@H](Cc1ccc([N+](=O)[O-])cc1)C(=O)O; dPhe(4-Cl) = N[C@H](Cc1ccc(Cl)cc1)C(=O)O; d2Nal = N[C@H](Cc1ccc2ccccc2c1)C(=O)O; dCit = NC(=O)NCCC[C@@H](N)C(=O)O; d3Pal = N[C@H](Cc1cccnc1)C(=O)O

The assay addresses T1, LHRH (Rattus norvegicus, UniProt P30969).
T1 construct: endogenous in cells
T1 sequence (P30969 1-327): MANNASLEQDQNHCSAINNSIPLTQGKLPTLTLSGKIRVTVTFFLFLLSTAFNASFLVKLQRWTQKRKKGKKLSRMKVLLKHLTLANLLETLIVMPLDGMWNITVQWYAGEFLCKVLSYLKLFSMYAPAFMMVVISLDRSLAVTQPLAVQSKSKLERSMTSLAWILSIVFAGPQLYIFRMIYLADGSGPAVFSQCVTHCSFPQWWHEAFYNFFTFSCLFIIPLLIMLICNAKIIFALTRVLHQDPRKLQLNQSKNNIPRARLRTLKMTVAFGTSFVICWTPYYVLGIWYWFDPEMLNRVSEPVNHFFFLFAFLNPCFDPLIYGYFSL
Briefly: in vitro test for LHRH antagonist potency (pA2) against the agonist leuprolide. The assay is classed as cell-based. Conditions: negative logarithm of the concentration of antagonist which shifts the response curve produced by the agonist leuprolide to two-fold higher concentration. The protocol:
Representative compounds of the present invention were evaluated in in vitro tests for receptor binding (pKI) and for LHRH antagonist potency (pA2). The tests employed the methods detailed in F. Haviv, et al. J. Med. Chem, 32: 2340-2344 (1989). The receptor binding affinities (pKI) are the negative logarithms of the equilibrium dissociation constants, and the values of pA2 are the negative logarithms of the concentration of antagonist which shift the response curve produced by the agonist leuprolide to two-fold higher concentration. (Leuprolide is the LHRH agonist having the structure 5-ox--Pro^1 --His^2 --Trp^3 --Ser^4 -- Tyr^5 --D--Leu^6 --Leu^7 --Arg^8 --Pro^9 --NHEt and is disclosed and claimed in U.S. Pat. No. 4,005,063.) Typically pA2 values of 9.5 or greater are indicative of good LHRH antagonist potency.

As to “NAc--D-2Nal--D-4ClPhe--D-3Pal--Ser--NMeTyr--D-(4-Atza)Phe--Leu--Lys(Isp)--Pro--D--AlaNH2 [Example 4]”, the pA2 is 10.35.
With `CC(=O)N[C@H](Cc1ccc2ccccc2c1)C(=O)N[C@H](Cc1ccc(Cl)cc1)C(=O)N[C@H](Cc1cccnc1)C(=O)N[C@@H](CO)C(=O)N(C)[C@@H](Cc1ccc([N+](=O)[O-])cc1)C(=O)N[C@H](CCCNC(N)=O)C(=O)N[C@@H](CC(C)C)C(=O)N[C@@H](CCCNC(=N)N)C(=O)N1CCC[C@H]1C(=O)N[C@H](C)C(N)=O` [Example 1, NAc--D-2Nal--D-4ClPhe--D-3Pal--Ser--NMe(4-NO2)Phe--D--Cit--Leu--Arg--Pro--DAlaNH2] (Ac-[d2Nal][dPhe(4-Cl)][d3Pal]S[NMePhe(4-NO2)][dCit]LRP[dA]-NH2), the antagonist equilibrium constant (Kb) is 5.5 pM.
“NAc--D-2Nal--D-4ClPhe--D-3Pal--Ser--NMe--(4-Atza)Phe--D--(4-Atza)Phe--Leu --Lys(Isp)--Pro--D--AlaNH2 [Example 5]”: the pA2 amounted to 10.68.
As for “NAc--D2Nal--D4ClPhe--D3Pal--Ser--NMe(4-Atza)Phe--DLyS(Nic)--Leu--Lys(Isp)-- ProDAlaNH2 [Example 3]”, the pA2 is 11.22.
